18 molecules from US20130252930A1 (BIOMARIN PHARMACEUTICAL INC., priority 2010, published 2013) can be followed below.

What is called pIC50 is the negative decadic logarithm of the IC50, by convention in mol/L. What is called inhibition is the percentage by which the read-out fell short of the control. The half-life is the time in which the quantity being followed falls by half. Higher therefore signals slow decline.

In data set [1] the target is T1, Cyp21 enzyme (Human HEK 293-Cyp21 stable transfected cells) (Homo sapiens, UniProt P08686).
T1 construct: expressed in transfected cells
T1 sequence (P08686 1-495): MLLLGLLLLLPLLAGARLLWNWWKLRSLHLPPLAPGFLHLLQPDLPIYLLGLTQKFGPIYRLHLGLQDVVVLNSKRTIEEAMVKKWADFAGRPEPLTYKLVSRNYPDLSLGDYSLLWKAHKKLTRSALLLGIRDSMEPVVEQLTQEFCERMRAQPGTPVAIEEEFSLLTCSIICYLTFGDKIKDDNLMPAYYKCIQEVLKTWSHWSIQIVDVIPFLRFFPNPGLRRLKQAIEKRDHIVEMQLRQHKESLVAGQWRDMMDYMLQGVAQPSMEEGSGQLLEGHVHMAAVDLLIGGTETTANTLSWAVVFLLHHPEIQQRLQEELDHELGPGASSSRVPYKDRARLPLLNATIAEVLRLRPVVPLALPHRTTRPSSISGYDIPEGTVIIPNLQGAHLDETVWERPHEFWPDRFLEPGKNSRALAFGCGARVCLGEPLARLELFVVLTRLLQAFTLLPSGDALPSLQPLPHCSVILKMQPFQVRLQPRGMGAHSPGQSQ
Briefly: CYP21-HEK293 enzymatic assay (IC50) (Biological Example 11). It is filed as cell-based.
Procedure: This assay was used to determine compound activity against Cyp21 enzyme. […] The next day, 20 μL medium was carefully removed and 10 μL of 10× pre-made compounds in DMEM+10% FBS+10% methanol was transferred to the wells to final concentrations of 1000, 100, 10, 1, or 0.1 nM. Mock treatment was 1% methanol in growth media and the cells were left at 37° C., 5% CO2 for 5 hr. After the incubation, 10 μL of substrate progesterone (Sigma) was added to the wells to make a final concentration of 10 μM. The cells were incubated the cells at 37° C. for 20 hr. At the end of incubation, 90 μL of conditioned media was removed to measure DOC level by ELISA.
The next day, the plates were washed twice with 250 μl of wash solution (0.015M PBS pH 7.4 containing 0.05% Tween 20). After being washed, the wells were blocked with 250 μL blocking buffer (3% BSA in 0.025M PBS, pH 7.4) at 37° C. for 2 h. The plates were washed again 3 times as before, and then 90 μL of sample /standards (prepared in complete growth media) was added into the appropriate wells followed by 10 μL of antibody solution (1:450 rabbit anti-DOC in 0.6% BSA/PBS). The plates were incubated at room temperature for 2 h on a shaker. The contents of the wells were removed and the plate was washed 4 times. After the final wash, 100 μL of secondary antibody (1:12000 HRP-goat-anti-rabbit IgG conjugate 0.6% BSA/PBS) was added into each well. […] The plate was washed again 4 times and 100 μL of TMB substrate solution was added to each well. The plate was incubated at room temperature for 10 min. 100 μL of stop solution was added to each well and the optical density was read at 450 nm.
The mean absorbance value for each sample was used to determine the corresponding concentration from the standard curve. Data was analyzed with “log(antagonist) vs response variable slope” under “non-linear regression analysis” using Prism5 software.

Data set [2] concerns the target T2, CYP17 (human testicular microsome) (Homo sapiens, UniProt P05093).
T2 construct: using microsomal fraction from human testis (Celsis Cat #S00110) as the enzyme source; tissue Celsis S00110; host or cells: human testis microsomal fraction
T2 sequence (P05093 1-508): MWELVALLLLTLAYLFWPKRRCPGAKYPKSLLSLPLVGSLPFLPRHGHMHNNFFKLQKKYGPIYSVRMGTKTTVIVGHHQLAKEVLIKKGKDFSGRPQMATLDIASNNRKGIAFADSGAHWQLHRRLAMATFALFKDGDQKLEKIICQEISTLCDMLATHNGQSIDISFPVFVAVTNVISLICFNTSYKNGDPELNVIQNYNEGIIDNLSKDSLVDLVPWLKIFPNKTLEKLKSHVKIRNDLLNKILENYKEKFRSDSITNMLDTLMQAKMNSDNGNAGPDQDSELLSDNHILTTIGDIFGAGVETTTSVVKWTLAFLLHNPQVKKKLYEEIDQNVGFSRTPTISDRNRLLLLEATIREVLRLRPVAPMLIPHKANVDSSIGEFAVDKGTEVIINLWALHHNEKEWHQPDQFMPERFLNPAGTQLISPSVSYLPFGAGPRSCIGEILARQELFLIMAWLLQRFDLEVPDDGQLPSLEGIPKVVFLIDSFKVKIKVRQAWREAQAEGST
Nature of the data set: CYP17 enzymatic assay (% inhibition at 1 nM) (Biological Example 12). It is filed as biochemical. The conditions noted are these: compound at 1 nM.

Data set [3] in a line: Human liver microsome stability assay (Biological Example 8b). The conditions noted are these: liver microsomes, pH 7.4.
Procedure: The reaction was started with addition of excess NADPH (5 mg/mL, 15 μL in 0.1 M potassium phosphate buffer, 1.0 mM EDTA, pH 7.4), the total volume is 45 μL (compound final concentration was 1 μM). […] 50 μL of the supernatant was transferred from each well into a 96-well sample plate containing 50 μL of ultra-pure water (Millipore) for LC-MS/MS analysis.
For data set [4], the target named is T2, CYP17 (human testicular microsome). Briefly: CYP17 enzymatic assay (IC50) (Biological Example 4). It is filed as biochemical. The conditions noted are these: human testicular microsome; read-out: Biological Example No. 4: CYP17 enzymatic assay IC50.
[5] abbreviates: HEK 293-Cyp21 cells, read-out: CYP21-HEK293 enzymatic assay IC50 (Biological Example No. 11).
[6] abbreviates: read-out: CYP17 enzymatic assay % inhibition at 1 nM (Biological Example No. 12).
[7] abbreviates: HEK 293-Cyp21 cells, read-out: Biological Example No. 11: CYP21-HEK293 enzymatic assay IC50.
The mark [8] stands for this setting: read-out: Biological Example No. 12: CYP17 enzymatic assay % inhibition at 1 nM.
Where [9] appears, read: HEK 293-Cyp21 stable transfected cells, read-out: CYP21-HEK293 enzymatic assay IC50 (Biological Example No. 11).

pIC50: −log10 of the molar value. Where two headings read alike, the source gives them in different places.

Regarding `C[C@]12CCC3C(CCC4=CC(=O)CC[C@@]43C)C1=CC=C2c1cnccn1` (stereo partly drawn) [Compound 291, (10R,13S)-10,13-dimethyl-17-(pyrazin-2-yl)-6,7,8,9,10,11,12,13-octahydro-1H-cyclopenta[a]phenanthren-3(2H)-one], the negative-log IC50 (pIC50) in data set [1] (setting [5]) is less than 7.00. Moreover, the inhibition at 0.001 µM in data set [2] (setting [6]) is more than 50%. Moreover, the half-life at 1 μM in data set [3] lay in the range of 1 to 50 min.
On the same counts, the results for `C[C@]12CCC3C(C=CC4=C(O)C(=O)CC[C@@]43C)C1=CC=C2c1cccnc1` (stereo partly drawn) [Compound 297, (10R,13S)-4-hydroxy-10,13-dimethyl-17-(pyridin-3-yl)-8,9,10,11,12,13-hexahydro-1H-cyclopenta[a]phenanthren-3(2H)-one] are less than 7.00, more than 50% and 1 to 50 min.
For the molecule `C[C@]12CCC(=O)C(O)=C1C=C[C@@H]1[C@@H]2CC[C@]2(C)C(c3cccnc3)=CC[C@@H]12` [Compound 301, (10R,13S)-4-hydroxy-10,13-dimethyl-17-(pyridin-3-yl)-8,9,10,11,12,13,14,15-octahydro-1H-cyclopenta[a]phenanthren-3(2H)-one], the pIC50 in data set [1] (setting [5]) was less than 6.00. In data set [2] (setting [6]), the inhibition at 0.001 µM is more than 50%. The molecule further registered a half-life at 1 μM in data set [3] of 1 to 50 min.
Consider `C[C@]12CCC(=O)C=C1C1CC1[C@@H]1[C@@H]2CC[C@]2(C)C(c3cccnc3)=CC[C@@H]12` (stereo partly drawn) [Compound 319, (4aR,6aS)-4a,6a-dimethyl-7-(pyridin-3-yl)-4,4a,4b,5,6,6a,9,9a,9b,9c,10,10a-dodecahydrocyclopenta[a]cyclopropa[l]phenanthren-2(3H)-one], for which, in data set [1] (setting [7]), the pIC50 is less than 7.00. In addition, the inhibition at 0.001 µM in data set [2] (setting [8]) was more than 50%. The half-life at 1 μM in data set [3] was in the range of 1 to 50 min.
As for `C[C@]12CC[C@H]3[C@@H](CC(CO)C4=CC(=O)CC[C@@]43C)C1=CC=C2c1cccnc1` (stereo partly drawn) [Compound 340, (10R,13S)-6-(hydroxymethyl)-10,13-dimethyl-17-(pyridin-3-yl)-6,7,8,9,10,11,12,13-octahydro-1H-cyclopenta[a]phenanthren-3(2H)-one], the values for the negative logarithm of the IC50 (pIC50) in data set [4] and in data set [1] (setting [7]) were more than 7.96 and less than 7.00, respectively. For the same molecule, the inhibition at 0.001 µM in data set [2] (setting [8]) was more than 50%.
For `CC1C[C@@H]2[C@H](CC[C@]3(C)C(c4cncc(F)c4)=CC[C@@H]23)[C@@]2(C)C=CC(=O)C=C12` (stereo partly drawn) [Compound 345, (10R,13S)-17-(5-fluoropyridin-3-yl)-6,10,13-trimethyl-6,7,8,9,10,11,12,13,14,15-decahydro-3H-cyclopenta[a]phenanthren-3-one], in that order: more than 7.96, 7.00 to 8.00 and more than 50%.
As for `C=C1C[C@H]2C3=CC=C(c4cccnc4)[C@@]3(C)CC[C@@H]2[C@@]2(C)C=CC(=O)C=C12` [Compound 350, (10R,13S)-10,13-dimethyl-6-methylene-17-(pyridin-3-yl)-6,7,8,9,10,11,12,13-octahydro-3H-cyclopenta[a]phenanthren-3-one], in data set [1] (setting [9]), the negative logarithm of the IC50 (pIC50) is more than 8.00. For the same molecule, the half-life at 1 μM in data set [3] was 1 to 50 min.
`CC1CC2C(CC[C@]3(C)C(c4cccnc4)=CCC23)[C@@]2(C)CCC(=NO)C=C12` (stereo partly drawn) [Compound 361, (10R,13S)-6,10,13-trimethyl-17-(pyridin-3-yl)-6,7,8,9,10,11,12,13,14,15-decahydro-1H-cyclopenta[a]phenanthren-3(2H)-one oxime]: the pIC50 in data set [1] (setting [7]) is less than 7.00. Besides, the inhibition at 0.001 µM in data set [2] (setting [8]) lay within 10 to 50%. In data set [3], this molecule registered a half-life at 1 μM of 1 to 50 min.
For `CC1CC2C3=CC=C(c4cncc(F)c4)[C@@]3(C)CCC2[C@@]2(C)CCNC(=O)C=C12` (stereo partly drawn) [Compound 389, (5aR,7aS)-8-(5-fluoropyridin-3-yl)-5a,7a,12-trimethyl-3,4,5,5a,5b,6,7,7a,11,12-decahydrocyclopenta[5,6]naphtho[1,2-d]azepin-2(10bH)-one], in that order: 7.00 to 8.00, 10 to 50% and 1 to 50 min.
For `C[C@]12CCC3C(CCC4=CC(=O)NCC[C@@]43C)C1=CC=C2c1cncc(C(F)F)c1` (stereo partly drawn) [Compound 390, (5aR,7aS)-8-(5-(difluoromethyl)pyridin-3-yl)-5a,7a-dimethyl-3,4,5,5a,5b,6,7,7a,11,12-decahydrocyclopenta[5,6]naphtho[1,2-d]azepin-2(10bH)-one], the results for the pIC50 in data set [4] and in data set [1] (setting [7]) were more than 7.96 and less than 6.00, respectively. In addition, the inhibition at 0.001 µM in data set [2] (setting [8]) is more than 50%.
For the molecule `CC1CC2C3=CC=C(c4cncc(C(F)F)c4)[C@@]3(C)CCC2[C@@]2(C)CCNC(=O)C=C12` (stereo partly drawn) [Compound 391, (5aR,7aS)-8-(5-(difluoromethyl)pyridin-3-yl)-5a,7a,12-trimethyl-3,4,5,5a,5b,6,7,7a,11,12-decahydrocyclopenta[5,6]naphtho[1,2-d]azepin-2(10bH)-one], in data set [1] (setting [7]), the pIC50 was less than 6.00. The inhibition at 0.001 µM in data set [2] (setting [8]) is less than 10%.
Regarding `CC1C[C@@H]2[C@H](CC[C@]3(C)C(c4cccnc4)CC[C@@H]23)[C@@]2(C)CCNC(=O)C=C12` (stereo partly drawn) [Compound 395, (5aR,7aS)-5a,7a,12-trimethyl-8-(pyridin-3-yl)-3,4,5,5a,5b,6,7,7a,8,9,10,10a,11,12-tetradecahydrocyclopenta[5,6]naphtho[1,2-d]azepin-2(10bH)-one], in data set [1] (setting [9]), the negative-log IC50 (pIC50) is more than 8.00. This molecule also showed a half-life at 1 μM in data set [3] of 1 to 50 min.
On to `C[C@]12CCC(=O)C=C1C=CC1C2CC[C@]2(C)C(c3cccnc3)=CCC12` (stereo partly drawn) [Compound 408, (10R,13S)-10,13-dimethyl-17-(pyridin-3-yl)-8,9,10,11,12,13,14,15-octahydro-1H-cyclopenta[a]phenanthren-3(2H)-one], for which the negative logarithm of the IC50 (pIC50) in data set [1] (setting [7]) was less than 7.00. In addition, in data set [2] (setting [8]), the inhibition at 0.001 µM is more than 50%. Also, the half-life at 1 μM in data set [3] fell in the range of 1 to 50 min.
In the case of `C[C@]12CCC(=O)C=C1C(=O)CC1C2CC[C@]2(C)C(c3cncc(F)c3)=CCC12` (stereo partly drawn) [Compound 417, (10R,13S)-17-(5-fluoropyridin-3-yl)-10,13-dimethyl-7,8,9,11,12,13,14,15-octahydro-1H-cyclopenta[a]phenanthrene-3,6(2H,10H)-dione], the negative logarithm of the IC50 (pIC50) was more than 7.96 in data set [4] and less than 6.00 in data set [1] (setting [7]). In data set [2] (setting [8]), the inhibition at 0.001 µM was more than 50%.
For the molecule `C[C@]12CCC(=O)CC1C(=O)CC1C2CC[C@]2(C)C(c3cncc(F)c3)=CCC12` (stereo partly drawn) [Compound 418, (10R,13S)-17-(5-fluoropyridin-3-yl)-10,13-dimethyl-4,5,7,8,9,11,12,13,14,15-decahydro-1H-cyclopenta[a]phenanthrene-3,6(2H,10H)-dione], the negative logarithm of the IC50 (pIC50) was more than 7.96 in data set [4] and less than 6.00 in data set [1] (setting [7]). Also, the inhibition at 0.001 µM in data set [2] (setting [8]) was more than 50%.
Consider `CC1C[C@@H]2[C@H](CC[C@]3(C)C(c4cccnc4)CC[C@@H]23)[C@@]2(C)CCC(=O)C=C12` (stereo partly drawn) [Compound 420, (10R,13S)-6,10,13-trimethyl-17-(pyridin-3-yl)-6,7,8,9,10,11,12,13,14,15,16,17-dodecahydro-1H-cyclopenta[a]phenanthren-3(2H)-one], for which, in data set [1] (setting [9]), the negative logarithm of the IC50 (pIC50) is more than 8.00. In data set [3], this molecule had a half-life at 1 μM of 1 to 50 min.
Regarding `CC1C[C@@H]2[C@H](CC[C@]3(C)C(c4cccnc4)CC[C@@H]23)[C@@]2(C)C=CC(=O)C=C12` (stereo partly drawn) [Compound 421, (10R,13S)-6,10,13-trimethyl-17-(pyridin-3-yl)-6,7,8,9,10,11,12,13,14,15,16,17-dodecahydro-3H-cyclopenta[a]phenanthren-3-one], the pIC50 in data set [1] (setting [9]) is more than 8.00. Further, the half-life at 1 μM in data set [3] was in the range of 1 to 50 min.
`C[C@]12CCC(=O)C=C1CCC1C2CC[C@]2(C)C(c3cncc(C(F)F)c3)=CCC12` (stereo partly drawn) [Compound 479, (10R,13S)-17-(5-(difluoromethyl)pyridin-3-yl)-10,13-dimethyl-6,7,8,9,10,11,12,13,14,15-decahydro-1H-cyclopenta[a]phenanthren-3(2H)-one]: the pIC50 in data set [1] (setting [7]) was less than 6.00. Besides, in data set [2] (setting [8]), the inhibition at 0.001 µM was 10 to 50%.
